Test results: ChEMBL document CHEMBL4052775, “Design, synthesis and in vitro anti-mycobacterial evaluation of gatifloxacin-1H-1,2,3-triazole-isatin hybrids” (Bioorg Med Chem Lett, 2017)
Values after ≈ are worked out from the molar mass of the structure shown.

These compounds were tested on Mycobacterium tuberculosis (assay: Antimycobacterial activity against isoniazid/rifampicin/ethambutol-resistant Mycobacterium tuberculosis 09710 by two fold dilution method).
Format: functional

Compared with `COc1c(N2CCNC(C)C2)c(F)cc2c(=O)c(C(=O)O)cn(C3CC3)c12` (stereo not drawn) [GATIFLOXACIN], `CO[C@H]1/C=C/O[C@@]2(C)Oc3c(C)c(O)c4c(O)c(c(/C=N/N5CCN(C)CC5)c(O)c4c3C2=O)NC(=O)/C(C)=C\C=C\[C@H](C)[C@H](O)[C@@H](C)[C@@H](O)[C@@H](C)[C@H](OC(C)=O)[C@@H]1C` [RIFAMPIN] is 32-fold higher in MIC: 1 µg/mL (≈ 2.66 µM) for the first, 32 µg/mL (≈ 38.9 µM) for the second.

`NNC(=O)c1ccncc1` [ISONIAZID] was tested, and the MIC was > 128 µg/mL.
